Data published in patent publication US20040220268A1, “Compound that directly stimulates phospholipase C activity” (priority 2003, published 2004).

Legend:
Test in all cases: Phosphoinositide hydrolysis in vitro
Format in all cases: biochemical
PLC β2 = PLC β2 (Homo sapiens, UniProt Q00722)
Description: (§1) The hydrolyzing activity of PtdIns-4,5-P2 was measured on mixed phospholipid vesicles containing 120 μM phosphatidylethanolamine, 30 μM PtdIns-4,5-P2, and 1 μCi/ml [3H] PtdIns-4,5-P2. Purified PLC β2, substrates, and the chemicals (2.5, 5, 10, 20, and 25 μM of m-3M3FBS or of o-3M3FBS) were coincubated (A), 25 μM of m-3M3FBS or o-3M3FBS, and phospholipid substrates were mixed with purified PLC β3, γ1, 2, or δ1 (B). Reactions were performed for 10 min at 37° C. in a 200 μl reaction mixture containing lipid micelles (5 μM [^3H] PtdIns-4,5-P2, 20,000 cpm). Reactions were stopped by adding 1 ml of CHCl3:CH3OH:HCl (50:50:0.3, v/v/v). Inositol trisphosphates were extracted with 0.5 ml of 1 M HCl/5 mM EGTA, and the radioactivity in the upper aqueous phase was measured. Data are presented as means ±S. E. M. of three independent experiments (A, B).
(§2) PLC activity was assayed using [^3H] PtdIns-4,5-P2 as a substrate (Min et al., 1993). PtdIns-4,5-P2-hydrolyzing activity was measured with mixed phospholipid micelles containing 120 μM phosphatidylethanolamine, 30 μM PtdIns-4,5-P2, and 1 μCi/ml [^3H] PtdIns-4,5-P2. The lipids, in chloroform, were dried under a stream of nitrogen gas, suspended in assay buffer (20 mM HEPES pH 7.0, 120 mM NaCl, 2 mM MgCl2, 40 or 100 μM CaCl2, and 1 mg/ml bovine albumin serum (Bayer, Leverkusen, Germany)), and sonicated. All proteins added to the reaction mixture were dialyzed overnight against the assay buffer. Incubation was performed for 10 min at 37° C. in a 200 μl reaction mixture containing lipid micelles (5 μM [3H] PtdIns-4,5-P2, 20,000 cpm). The reaction was stopped by adding 2 ml of CHCl3: CH3OH: HCl (50: 50: 0.3, v/v/v). The inositol triphosphates were extracted with 0.5 ml of 1 N HCl, and radioactivities in the upper aqueous phase were measured.

PLC β3 = target: T1, PLC β3 (Homo sapiens, UniProt Q01970); conditions: 25 μM; purified isozyme
T1 sequence (Q01970 1-1234): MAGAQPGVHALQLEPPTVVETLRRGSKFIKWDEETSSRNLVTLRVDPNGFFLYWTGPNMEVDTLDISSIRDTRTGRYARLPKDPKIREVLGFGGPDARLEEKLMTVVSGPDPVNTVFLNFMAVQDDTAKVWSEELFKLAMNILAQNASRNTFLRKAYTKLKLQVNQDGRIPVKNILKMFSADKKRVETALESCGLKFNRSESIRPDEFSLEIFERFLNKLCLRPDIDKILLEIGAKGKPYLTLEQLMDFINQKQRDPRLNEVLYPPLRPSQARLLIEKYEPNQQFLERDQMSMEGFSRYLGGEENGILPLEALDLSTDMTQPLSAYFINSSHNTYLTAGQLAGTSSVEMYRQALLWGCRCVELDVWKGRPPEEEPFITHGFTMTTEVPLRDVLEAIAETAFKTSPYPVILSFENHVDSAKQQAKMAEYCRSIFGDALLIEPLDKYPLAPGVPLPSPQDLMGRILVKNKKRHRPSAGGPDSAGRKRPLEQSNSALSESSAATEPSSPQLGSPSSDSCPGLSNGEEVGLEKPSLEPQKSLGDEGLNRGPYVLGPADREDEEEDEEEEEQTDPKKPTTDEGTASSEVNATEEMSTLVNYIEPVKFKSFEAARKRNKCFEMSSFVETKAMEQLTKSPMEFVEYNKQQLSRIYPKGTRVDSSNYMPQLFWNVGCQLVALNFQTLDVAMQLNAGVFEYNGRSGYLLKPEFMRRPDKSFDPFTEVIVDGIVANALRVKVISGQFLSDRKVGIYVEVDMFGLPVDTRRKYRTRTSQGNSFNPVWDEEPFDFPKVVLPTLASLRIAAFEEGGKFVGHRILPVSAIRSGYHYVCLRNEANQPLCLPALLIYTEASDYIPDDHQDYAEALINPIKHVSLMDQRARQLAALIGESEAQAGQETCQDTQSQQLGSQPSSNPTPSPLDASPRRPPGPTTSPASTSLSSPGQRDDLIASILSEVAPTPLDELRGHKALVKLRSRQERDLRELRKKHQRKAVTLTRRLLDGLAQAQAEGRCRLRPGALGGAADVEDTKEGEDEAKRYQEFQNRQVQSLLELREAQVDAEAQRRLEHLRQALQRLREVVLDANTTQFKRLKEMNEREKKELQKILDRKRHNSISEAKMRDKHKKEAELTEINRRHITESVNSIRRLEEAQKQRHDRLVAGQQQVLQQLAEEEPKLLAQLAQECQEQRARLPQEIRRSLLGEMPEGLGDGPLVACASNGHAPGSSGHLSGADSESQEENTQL
Description: as §1, §2

PLC δ1 = target: T2, PLC δ1 (Homo sapiens, UniProt P51178); conditions: 25 μM; purified isozyme
T2 sequence (P51178 1-756): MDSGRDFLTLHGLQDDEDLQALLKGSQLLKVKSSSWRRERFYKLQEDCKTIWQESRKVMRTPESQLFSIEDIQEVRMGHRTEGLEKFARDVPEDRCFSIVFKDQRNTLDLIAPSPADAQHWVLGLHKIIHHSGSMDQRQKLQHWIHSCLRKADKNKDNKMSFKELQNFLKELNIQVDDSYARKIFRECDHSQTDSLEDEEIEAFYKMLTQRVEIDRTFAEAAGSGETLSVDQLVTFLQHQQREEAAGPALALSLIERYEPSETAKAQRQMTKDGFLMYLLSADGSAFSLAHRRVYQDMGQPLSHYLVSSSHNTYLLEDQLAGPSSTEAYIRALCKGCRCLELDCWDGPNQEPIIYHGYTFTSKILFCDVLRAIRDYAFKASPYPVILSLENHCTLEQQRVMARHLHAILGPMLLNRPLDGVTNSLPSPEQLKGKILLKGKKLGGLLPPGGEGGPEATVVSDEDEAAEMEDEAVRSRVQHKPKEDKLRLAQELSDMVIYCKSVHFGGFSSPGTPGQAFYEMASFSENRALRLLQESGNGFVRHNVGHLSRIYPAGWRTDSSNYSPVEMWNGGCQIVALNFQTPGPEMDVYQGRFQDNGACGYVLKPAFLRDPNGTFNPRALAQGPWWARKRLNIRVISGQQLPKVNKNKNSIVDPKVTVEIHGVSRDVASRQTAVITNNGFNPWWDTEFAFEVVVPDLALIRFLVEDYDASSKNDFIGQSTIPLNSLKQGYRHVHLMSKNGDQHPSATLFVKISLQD
Description: as §1, §2

Chain of PLC β2 (Q00722 whole entry, species assumed): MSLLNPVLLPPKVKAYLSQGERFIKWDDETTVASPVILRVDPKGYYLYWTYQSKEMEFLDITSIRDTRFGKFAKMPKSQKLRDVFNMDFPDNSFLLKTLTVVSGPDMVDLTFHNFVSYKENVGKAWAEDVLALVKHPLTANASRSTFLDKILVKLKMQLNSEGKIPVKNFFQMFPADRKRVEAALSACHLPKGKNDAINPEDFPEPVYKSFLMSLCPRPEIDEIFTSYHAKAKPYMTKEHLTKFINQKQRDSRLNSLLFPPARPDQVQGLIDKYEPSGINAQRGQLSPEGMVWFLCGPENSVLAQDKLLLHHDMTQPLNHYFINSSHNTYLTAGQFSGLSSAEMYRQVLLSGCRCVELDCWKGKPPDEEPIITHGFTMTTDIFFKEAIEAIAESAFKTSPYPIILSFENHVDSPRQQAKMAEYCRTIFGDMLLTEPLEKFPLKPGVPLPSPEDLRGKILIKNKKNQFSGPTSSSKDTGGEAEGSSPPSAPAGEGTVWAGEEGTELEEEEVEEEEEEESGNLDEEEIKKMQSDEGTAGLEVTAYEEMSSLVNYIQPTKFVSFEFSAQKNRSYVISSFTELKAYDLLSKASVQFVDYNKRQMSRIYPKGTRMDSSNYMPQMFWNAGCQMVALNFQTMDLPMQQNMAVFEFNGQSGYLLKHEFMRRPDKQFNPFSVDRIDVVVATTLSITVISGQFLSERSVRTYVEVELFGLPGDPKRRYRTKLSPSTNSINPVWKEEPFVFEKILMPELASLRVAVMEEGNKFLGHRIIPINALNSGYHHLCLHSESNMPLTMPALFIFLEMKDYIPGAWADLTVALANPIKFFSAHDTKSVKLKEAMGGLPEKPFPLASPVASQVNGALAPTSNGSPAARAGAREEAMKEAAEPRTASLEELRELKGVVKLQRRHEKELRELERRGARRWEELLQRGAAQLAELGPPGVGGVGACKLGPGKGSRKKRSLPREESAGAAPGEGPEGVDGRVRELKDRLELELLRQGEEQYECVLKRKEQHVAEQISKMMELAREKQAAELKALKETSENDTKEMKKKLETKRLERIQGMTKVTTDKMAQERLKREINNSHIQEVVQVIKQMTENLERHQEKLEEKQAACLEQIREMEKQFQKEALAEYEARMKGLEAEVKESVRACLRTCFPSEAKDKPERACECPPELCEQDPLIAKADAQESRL

| SMILES | in vitro PLCβ2 activity (PLC β2; [3H] PtdIns as substrate, data not shown) | concentration at which PIP2-hydrolyzing activity of PLC β2 was enhanced (PLC β2; [3H] PtdIns-4,5-P2 substrate) | effect on PIP2-hydrolyzing activity of PLC β2 (PLC β2; low doses (ca., 2.5 and 5 μM), [3H] PtdIns-4,5-P2 substrate) | activity of PLC beta3 (PLC β3) | activity of PLC delta1 (PLC δ1) | effect on PIP2-hydrolyzing activity of PLC β2 (PLC β2; at 10 μM or higher concentrations (up to 25 μM)) |
| --- | --- | --- | --- | --- | --- | --- |
| Cc1cc(C)c(S(=O)(=O)Nc2cccc(C(F)(F)F)c2)c(C)c1 [m-3M3FBS, 2,4,6-Trimethyl-N-(meta 3-trifluoromethyl-phenyl)-benzenesulfonamide] | significantly increased | exceeding 10 μM | no effect | augmented the activity | augmented the activity | – |
| Cc1cc(C)c(S(=O)(=O)Nc2ccccc2C(F)(F)F)c(C)c1 [o-3M3FBS, 2,4,6-Trimethyl-N-(ortho 3-trifluoromethyl-phenyl)-benzenesulfonamide, reference compound] | – | – | – | did not affect | did not affect | no effect |
